Source: paper PMC10247784, “Physiological activation of human and mouse bitter taste receptors by bile acids” (Communications Biology, 2023)

Target: T1, mouse Tas2r105 (Mus musculus, UniProt Q9JKT4)
T1 construct: expressed in transfected cells; host or cells: HEK293T-Gα16gust44
T1 sequence (Q9JKT4 1-300): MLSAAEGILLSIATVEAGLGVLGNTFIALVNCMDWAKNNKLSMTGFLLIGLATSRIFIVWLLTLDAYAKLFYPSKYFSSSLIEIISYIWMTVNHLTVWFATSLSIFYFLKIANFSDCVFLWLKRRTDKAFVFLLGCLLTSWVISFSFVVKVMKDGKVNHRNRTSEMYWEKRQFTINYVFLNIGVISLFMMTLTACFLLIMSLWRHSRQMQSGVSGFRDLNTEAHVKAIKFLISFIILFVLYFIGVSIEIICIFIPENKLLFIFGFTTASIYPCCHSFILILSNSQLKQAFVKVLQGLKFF
Assay: Calcium imaging assay (FLIPR), HEK293T-Gα16gust44 cells transfected with mouse Tas2r105
Assay type: cell-based
Protocol: This set of bile acids was chosen because of their commercial availability in high purities, their diversity within the class of bile acids and their previous detection and quantitation in human blood. Stock solutions were prepared in DMSO.
As basal growth medium for the HEK293T-Gα16gust44 cell line[17],[59] served Dulbecco’s modified eagle medium (DMEM) (Thermo Fisher Scientific, Darmstadt, Germany) supplemented with 10 % fetal bovine serum (Sigma-Aldrich, Steinheim, Germany), 2 mM L-glutamine (Sigma-Aldrich, Steinheim, Germany), 100 units/ml penicillin (Sigma Aldrich, Steinheim, Germany) and 100 µg/ml streptomycin (Sigma Aldrich, Steinheim, Germany). Growth conditions were 37 °C, 5 % CO2 and saturated air-humidity[60].
HEK293T-Gα16gust44 cells were seeded on poly-D-lysine (10 µg/ml) coated 96-well plates to reach a confluence of 40-60 % the next day. For transient transfection 150 ng of plasmid DNA containing the receptor of interest and 0.3 µl lipofectamine 2000 (Thermo Fisher Scientific, Darmstadt, Germany) per well were used and transfection took place according to the manual of lipofectamine 2000. […] The empty vector DNA (mock) was transfected as negative control[14],[41].
Cells were loaded using the calcium-sensitive fluorescent dye Fluo-4-AM (Abcam, Cambridge, Great Britain) in the presence of 2.5 mM probenecid (Sigma-Aldrich, Steinheim, Germany) the day after transfection[13],[41]. 1 h after loading, cells were washed with C1 buffer using a BioTek Cell Washer, incubated in the dark for half an hour and washed again. For automated agonist application and measurement of fluorescence changes, a FLIPR^TETRA device (Molecular Devices, San José, United States) was used. Viability of cells was tested by application of 100 nM Somatostatin 14 (Bachem, Bubendorf, Switzerland)[42].
Measured data were negative control corrected by subtracting the signal of the mock-transfected cells and exported to Microsoft Excel using the FLIPR software ScreenWorks 4.2. In Microsoft Excel software, standardization of maximum fluorescence intensities to the basal fluorescence and normalization to the buffer-only control was done to calculate the relative fluorescence changes (ΔF/F).
Initial screening experiments performed in duplicate wells were confirmed by at least one replication and representative traces were selected for display. All dose-response relationships were determined by three independent experiments (biological replicates) performed in duplicates (technical replicates). Threshold concentrations, defined as lowest substance concentrations leading to statistically significant elevated fluorescence changes in receptor-transfected cells compared with empty vector-transfected cells, were determined using SigmaPlot with Student’s t-test to evaluate statistical significance (p < 0.01).

RLU (Time 0 s): 0 RLU
RLU (Time 2 s): -7.941 RLU
RLU (Time 4 s): 8.425 RLU
RLU (Time 6 s): -2.576 RLU
RLU (Time 8 s): 14.8013 RLU
RLU (Time 12 s): -9.724 RLU
RLU (Time 14 s): -8.452 RLU
RLU (Time 16 s): 1.889 RLU
RLU (Time 18 s): -2.18 RLU
RLU (Time 18.781 s): -20.0658 RLU
RLU (Time 20.781 s): -17.0266 RLU
RLU (Time 22.781 s): -39.9091 RLU
RLU (Time 24.781 s): 0.577 RLU
RLU (Time 26.781 s): -0.6161 RLU
RLU (Time 28.781 s): 4.903 RLU
RLU (Time 30.781 s): -6.367 RLU
RLU (Time 32.781 s): -0.4375 RLU
RLU (Time 34.781 s): 4.775 RLU
RLU (Time 36.781 s): -8.6591 RLU
RLU (Time 38.781 s): -14.3055 RLU
RLU (Time 40.781 s): 9.418 RLU
RLU (Time 42.781 s): -11.7018 RLU
RLU (Time 44.781 s): -11.9371 RLU
RLU (Time 46.781 s): 4.597 RLU
RLU (Time 48.781 s): 27.0511 RLU
RLU (Time 50.781 s): -9.756 RLU
RLU (Time 52.781 s): 20.1786 RLU
RLU (Time 54.781 s): 19.4961 RLU
RLU (Time 56.781 s): 5.269 RLU
RLU (Time 58.781 s): 38.5167 RLU
RLU (Time 60.781 s): 24.5618 RLU
RLU (Time 62.781 s): 36.5379 RLU
RLU (Time 64.781 s): 21.9337 RLU
RLU (Time 66.781 s): 35.0054 RLU
RLU (Time 68.781 s): 34.4928 RLU
RLU (Time 70.781 s): 42.8161 RLU
RLU (Time 72.781 s): 53.1321 RLU
RLU (Time 74.781 s): 54.3186 RLU
RLU (Time 76.781 s): 66.018 RLU
RLU (Time 78.781 s): 45.8125 RLU
RLU (Time 80.781 s): 59.5249 RLU
RLU (Time 82.781 s): 62.7416 RLU
RLU (Time 84.781 s): 68.7087 RLU
RLU (Time 86.781 s): 90.9377 RLU
RLU (Time 88.781 s): 81.07 RLU
RLU (Time 90.781 s): 72.636 RLU
RLU (Time 92.781 s): 97.4301 RLU
RLU (Time 94.781 s): 105.551 RLU
RLU (Time 96.781 s): 100.341 RLU
RLU (Time 98.781 s): 103.309 RLU
RLU (Time 100.781 s): 117.485 RLU
RLU (Time 102.781 s): 130.646 RLU
RLU (Time 104.781 s): 147.286 RLU
RLU (Time 106.781 s): 108.305 RLU
RLU (Time 108.781 s): 142.084 RLU
RLU (Time 110.781 s): 147.264 RLU
RLU (Time 112.781 s): 118.273 RLU
RLU (Time 114.781 s): 167.002 RLU
RLU (Time 116.781 s): 149.721 RLU
RLU (Time 118.781 s): 160.265 RLU
RLU (Time 120.781 s): 160.404 RLU
RLU (Time 122.781 s): 193.86 RLU
RLU (Time 124.781 s): 179.508 RLU
RLU (Time 126.781 s): 161.679 RLU
RLU (Time 128.781 s): 158.603 RLU
RLU (Time 130.781 s): 180.418 RLU
RLU (Time 132.781 s): 180.045 RLU
RLU (Time 134.781 s): 177.913 RLU
RLU (Time 136.781 s): 194.619 RLU
RLU (Time 137.562 s): 177.939 RLU
RLU (Time 143.562 s): 180.507 RLU
RLU (Time 149.562 s): 188.634 RLU
RLU (Time 155.562 s): 199.157 RLU
RLU (Time 161.562 s): 206.349 RLU
RLU (Time 167.562 s): 208.396 RLU
RLU (Time 173.562 s): 211.199 RLU
RLU (Time 179.562 s): 201.145 RLU
RLU (Time 185.562 s): 195.662 RLU
RLU (Time 191.562 s): 211.659 RLU
RLU (Time 197.562 s): 209.959 RLU
RLU (Time 203.562 s): 191.361 RLU
RLU (Time 209.562 s): 208.831 RLU
RLU (Time 215.562 s): 204.186 RLU
RLU (Time 221.562 s): 168.101 RLU
RLU (Time 227.562 s): 191.058 RLU
RLU (Time 233.562 s): 174.166 RLU
RLU (Time 239.562 s): 185.934 RLU
RLU (Time 245.562 s): 176.351 RLU
RLU (Time 293.562 s): 157.143 RLU
RLU (Time 299.562 s): 147.048 RLU
RLU (Time 305.562 s): 138.332 RLU
RLU (Time 311.562 s): 135.378 RLU
RLU (Time 317.562 s): 138.908 RLU
RLU (Time 323.562 s): 128.724 RLU
RLU (Time 329.562 s): 125.639 RLU
RLU (Time 335.562 s): 124.441 RLU
RLU (Time 341.562 s): 111.174 RLU
RLU (Time 347.562 s): 105.923 RLU
RLU (Time 353.562 s): 95.2183 RLU
RLU (Time 359.562 s): 94.5256 RLU
Activation threshold concentration Tas2r105 (p < 0.01 vs empty vector): 10 µM
Structure (SMILES): C[C@H](CCC(=O)O)[C@H]1CC[C@H]2[C@@H]3CC[C@@H]4C[C@H](O)CC[C@]4(C)[C@H]3C[C@H](O)[C@]12C [Deoxycholic Acid, deoxycholic acid]
